The results in this text go back to article PMC3078958 (Archives of biochemistry and biophysics, 2011).

This experiment has as its target T1, CsOxOx (Ceriporiopsis subvermispora bicupin oxalate oxidase, isoform-G) (Gelatoporia subvermispora, UniProt Q5ZH56).
T1 sequence (Q5ZH56 21-461): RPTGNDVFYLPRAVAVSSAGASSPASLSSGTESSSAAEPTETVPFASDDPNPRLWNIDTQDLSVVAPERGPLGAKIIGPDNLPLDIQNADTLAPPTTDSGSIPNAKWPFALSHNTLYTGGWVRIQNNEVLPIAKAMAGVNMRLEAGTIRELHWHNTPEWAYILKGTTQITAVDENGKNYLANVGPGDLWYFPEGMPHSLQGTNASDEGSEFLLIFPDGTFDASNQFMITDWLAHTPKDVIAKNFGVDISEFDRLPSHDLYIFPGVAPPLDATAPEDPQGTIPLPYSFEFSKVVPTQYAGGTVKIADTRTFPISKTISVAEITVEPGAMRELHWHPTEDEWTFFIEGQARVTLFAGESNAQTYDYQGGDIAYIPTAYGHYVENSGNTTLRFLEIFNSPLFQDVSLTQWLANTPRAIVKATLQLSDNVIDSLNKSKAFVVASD
In words: continuous coupled HRP/ABTS assay of H2O2 production, […] nm. The format is biochemical.
The term Ki denotes a dissociation constant, usually derived from enzyme kinetics or from competition with a known ligand. Read a low Ki as higher affinity. As to `CC(=O)O` [acetate], the affinity corresponds to a Ki of 3.9 ± 0.6 mM.

Compound `O=C(O)CO` [glycolate] returned a Ki of 28 ± 5 mM.

With `O=C(O)C[C@H](O)C(=O)O` [malate], the inhibition constant (Ki) was found to be 52 ± 6 mM.

`O=C(O)CC(=O)O` [malonate] yielded a Ki of 3 ± 0.3 mM.

Consider `O=CC(=O)O` [glyoxylate], for which the Ki is 15 ± 3 mM.

As for `CC(=O)C(=O)O` [pyruvate], affinity was put at a Ki of 17 ± 3 mM.
